Measured values published in patent US10150984B2, “Tyrosine kinase biosensors and methods of use” (Purdue Research Foundation, priority 2012, dated 2018).
Read-outs that look alike come from different tables or passages of the source. *1 amine or outer side, *2 acyl side, *3 side chain or, on linkers, in order; H or OH if unused. Where no end group is shown, it is not given here. [ ]: non-standard residue; d: D form. The star is where a group is joined. ξ: configuration not given here. ξβ3hPhg(2-NO2) = O=C(CC(N[*:1])c1ccccc1[N+](=O)[O-])[*:2]; Biotin = O=C1N[C@H]2[C@H](CS[C@H]2CCCCC(=O)*)N1

Columns and labels:
[1] = system: peripheral T-cell lymphomas (PTCLs); conditions: PTCL cells; cited from earlier work
Syk-EGFP = Syk-EGFP (Mus musculus, UniProt P48025); assay: Terbium time-resolved luminescence dose-response inhibition assay with SAStide; type: biochemical; conditions: SAStide 37.5 μM, 30 min, Tb3+ luminescence, read-out: observed IC50
[2] = Tb3+ binding affinity and stoichiometry by sensitized luminescence
[3] = system: DG75 and DT40 B cell lines; assay: Toxicity of SAStide biosensor peptide in the cell-based assay; conditions: peptide at 25 μM
Method: Cell culture and biological reagents. The DG75 and DT40 B cell lines were grown to a density of 0.4×10^6 cells/mL in RPMI-1640 medium containing 7.5% FBS, 1 mM sodium pyruvate, 100 IU/mL penicillin, 100 μg/mL streptomycin and 50 μM 2-metcaptoethanol. Additionally, DT40 cell medium contained 1% chicken serum. Anti-chicken IgM and anti-mouse IgM F(ab′)2 fragments were purchased from Bethyl Laboratories. Anti-human IgM was purchased from Rockland Immunochemicals. Hydrogen peroxide was purchased from Mallinckrodt. Anti-Syk (N-19) was purchased from Santa Cruz Biotechnology. Anti-tubulin and anti-phosphotyrosine (4G10) were purchased from Millipore. Anti-phospho Syk (Y525/526) was purchased from Cell SignalingTechnology.
Cell-Based peptide SAStide biosensor assay. […] Aliquots of the cell suspension (1 mL) were harvested, lysed in PhosphoSafe Extraction Reagent (EMD Millipore) containing 167 mM EDTA and freshly prepared protease inhibitor cocktail (Roche) and flash frozen. Half the cell lysate from each sample was used for ELISA-based fluorescence detection and the other for immunoblotting. For dose-response experiments, cells were stimulated with varying concentrations of anti-IgM (2.5-10 μg/mL) or hydrogen peroxide (1-7 mM), harvested at 5 min post-stimulation and processed as described above. For immunoblotting, membranes were blocked in 5% goat serum for 1 h. […]

Abl [4] = target: T1, Abl (Homo sapiens, UniProt P00519); assay: In vitro kinase assay, ELISA-based detection of peptide phosphorylation; type: biochemical; conditions: ELISA read-out
Method: (§1) In vitro kinase assay. Recombinant Abl, Src and Lyn enzymes were obtained from a commercial source (Millipore). EGFP-conjugated Syk was isolated from DT40 chicken B cells stably expressing Syk-EGFP. GFP-conjugated Lck was isolated from Jurkat cells stably expressing Lck-EGFP. Cells were lysed using a solution containing 1% Nonidet P-40, 50 mM Tris-HCl pH 8.0, 100 mM NaCl, 5 mM EDTA, 1 mM sodium orthovanadate, 2 mM NaF and 1× mammalian protease inhibitor cocktail (Sigma). Syk- and Lck-EGFP were immunoprecipitated using GFP-Trap_A beads (Chromotek) or anti-GFP magnetic nanoparticle beads (MBL, Japan). Lysates were incubated with the beads for 1 h at 4° C. The kinase-bound beads were washed and then used in the in vitro kinase assay. Syk-EGFP, Lck-EGFP, or purified Abl or Src kinase (0.1 U) were incubated with kinase reaction buffer (500 μM ATP, 5 mM MnCl2, HEPES, pH 7.2) containing the peptide substrate at 25 μM. Aliquots (22 μL) were taken at designated time points and quenched in 0.5 M EDTA, pH 8.5 (22 μL). The quenched sample (1 μL) was diluted into ELISA-based detection wash buffer and analyzed as described below. For substrate comparison assays, kinase reaction conditions were as described above except that substrate concentrations were 4 μM, and concentration of enzyme used per reaction was 6 nM. The volume of aliquots diluted in an equal volume of quench buffer was 4 μl (for 8 μl total quenched volume), and the entire quenched amount was diluted into ELISA wash buffer and analyzed as described below.
(§2) ELISA-based fluorescence detection. Samples were incubated in a 96-well Neutravidin™ coated plate (Thermo Scientific) in Tris-buffered saline (TBS) containing 0.1% BSA and 0.05% Tween 20 for 1 h at room temperature on a short-radius plate shaker (600 rpm). Following incubation, wells were washed three times with wash buffer (TBS, 0.1% BSA, 0.05% Tween 20), then incubated with mouse anti-phosphotyrosine monoclonal antibody 4G10 (1:5000 dilution in wash buffer, 100 μL per well) for 1 h at room temperature with shaking. Wells were washed three times with wash buffer and incubated with horseradish peroxidase-conjugated goat anti-mouse immunoglobulin G (IgG) secondary antibody (Abcam) (1:1000 dilution in the wash buffer, 100 μL per well) for 1 h at room temperature with shaking. Wells were then washed three times with wash buffer and twice with sodium phosphate buffer (0.05 M, pH 7.5). For chemifluorescence detection, Amplex Red™ reaction buffer (100 μL total volume/well) consisting of Amplex Red™ reagent (50 μL) (Invitrogen), 20 mM H2O2 (500 μL) and sodium phosphate buffer (4500 μL) and allowed to react for 30 min. Fluorescence of Amplex Red™ was measure using a Synergy4 multiwell plate reader (Biotek) with an excitation wavelength of 532 nm and emission wavelength of 590 nm.

Src = Src (Homo sapiens, UniProt P12931); assay: as above; type: biochemical; conditions: ELISA read-out
Method: as §1, §2

Lyn = Lyn (Homo sapiens, UniProt P07948); assay: as above; type: biochemical; conditions: ELISA read-out
Method: as §1, §2

Syk = target: T2, Syk (Mus musculus, UniProt P48025); assay: as above; type: biochemical; conditions: ELISA read-out
T2 construct: made in house; host or cells: DT40 chicken B cells (Syk-deficient, reconstituted with Syk-EGFP)
Method: as §1, §2

Bcr-Abl [5] = target: T3, Bcr-Abl (Homo sapiens, UniProt P00519); assay: Cell-based Bcr-Abl biosensor assay in K562 cells, Western blot
K562 cells = assay: Intracellular degradation of biosensor peptide in K562 cells, MALDI-TOF/TOF; conditions: 5 min exposure
Abl [6] = target: T1, Abl; assay: ABStide specificity in vitro kinase assay (terbium luminescence, confirmed by ELISA); type: biochemical; conditions: terbium-sensitized luminescence
Method: Terbium based in vitro kinase assays. Recombinant kinases were incubated with the kinase reaction buffer (15 nM kinase, 100 μM ATP, 10 mM MgCl2, 125 ng/μL BSA and 25 mM HEPES pH 7.5, total volume 180 μL) containing 12.5 μM biosensor at 30° C. Aliquots (20 μL) were taken at designated time points (0.5, 5, 10, 15, 30, 45 and 60 min) and quenched in 6 M urea (20 μL). The quenched samples were then treated with the luminescence buffer (500 μM Tb^3+ and 500 mM NaCl, 10 μL) for a total volume of 50 μL (final concentrations of sample components: 2.4 M urea, 40 μM ATP, 4 mM MgCl2, 50 ng/μL BSA and 10 mM HEPES pH 7.5). Luminescence emission spectra were collected as described above and the area under each spectrum was integrated using GraphPad Prism. An additional aliquot (2 μL) of the kinase reaction mixture was taken at each time point for validation of phosphorylation using an ELISA-based chemifluorescent assay as previously described. Briefly, each aliquot was quenched with 0.5 M EDTA and incubated in a 96-well Neutravidin coated plate (15 pmol biotin binding capacity per well, Thermo Scientific) in Tris-buffer saline (TBS) containing 0.1% BSA and 0.05% Tween 20 for 1 h. […] Fluorescence was measured using a Synergy4 multiwell plate reader (Biotek) with an excitation wavelength of 532 nm and emission wavelength of 590 nm.

Bcr-Abl [7] = target: T3, Bcr-Abl; assay: Cell-based Bcr-Abl biosensor assay in K562 cells, MRM mass spectrometry; set-up: endogenous in cells; host or cells: K562 cells; the other entry of the earlier key: BCR (P11274, Breakpoint cluster region protein); conditions: 5 min, 1 μg lysate
[8] = 1 μM peptide, Tb3+ 0-50 μM, read-out: Kd of peptide:terbium complex

T3 sequence (P00519 with tags, fused parts or gaps): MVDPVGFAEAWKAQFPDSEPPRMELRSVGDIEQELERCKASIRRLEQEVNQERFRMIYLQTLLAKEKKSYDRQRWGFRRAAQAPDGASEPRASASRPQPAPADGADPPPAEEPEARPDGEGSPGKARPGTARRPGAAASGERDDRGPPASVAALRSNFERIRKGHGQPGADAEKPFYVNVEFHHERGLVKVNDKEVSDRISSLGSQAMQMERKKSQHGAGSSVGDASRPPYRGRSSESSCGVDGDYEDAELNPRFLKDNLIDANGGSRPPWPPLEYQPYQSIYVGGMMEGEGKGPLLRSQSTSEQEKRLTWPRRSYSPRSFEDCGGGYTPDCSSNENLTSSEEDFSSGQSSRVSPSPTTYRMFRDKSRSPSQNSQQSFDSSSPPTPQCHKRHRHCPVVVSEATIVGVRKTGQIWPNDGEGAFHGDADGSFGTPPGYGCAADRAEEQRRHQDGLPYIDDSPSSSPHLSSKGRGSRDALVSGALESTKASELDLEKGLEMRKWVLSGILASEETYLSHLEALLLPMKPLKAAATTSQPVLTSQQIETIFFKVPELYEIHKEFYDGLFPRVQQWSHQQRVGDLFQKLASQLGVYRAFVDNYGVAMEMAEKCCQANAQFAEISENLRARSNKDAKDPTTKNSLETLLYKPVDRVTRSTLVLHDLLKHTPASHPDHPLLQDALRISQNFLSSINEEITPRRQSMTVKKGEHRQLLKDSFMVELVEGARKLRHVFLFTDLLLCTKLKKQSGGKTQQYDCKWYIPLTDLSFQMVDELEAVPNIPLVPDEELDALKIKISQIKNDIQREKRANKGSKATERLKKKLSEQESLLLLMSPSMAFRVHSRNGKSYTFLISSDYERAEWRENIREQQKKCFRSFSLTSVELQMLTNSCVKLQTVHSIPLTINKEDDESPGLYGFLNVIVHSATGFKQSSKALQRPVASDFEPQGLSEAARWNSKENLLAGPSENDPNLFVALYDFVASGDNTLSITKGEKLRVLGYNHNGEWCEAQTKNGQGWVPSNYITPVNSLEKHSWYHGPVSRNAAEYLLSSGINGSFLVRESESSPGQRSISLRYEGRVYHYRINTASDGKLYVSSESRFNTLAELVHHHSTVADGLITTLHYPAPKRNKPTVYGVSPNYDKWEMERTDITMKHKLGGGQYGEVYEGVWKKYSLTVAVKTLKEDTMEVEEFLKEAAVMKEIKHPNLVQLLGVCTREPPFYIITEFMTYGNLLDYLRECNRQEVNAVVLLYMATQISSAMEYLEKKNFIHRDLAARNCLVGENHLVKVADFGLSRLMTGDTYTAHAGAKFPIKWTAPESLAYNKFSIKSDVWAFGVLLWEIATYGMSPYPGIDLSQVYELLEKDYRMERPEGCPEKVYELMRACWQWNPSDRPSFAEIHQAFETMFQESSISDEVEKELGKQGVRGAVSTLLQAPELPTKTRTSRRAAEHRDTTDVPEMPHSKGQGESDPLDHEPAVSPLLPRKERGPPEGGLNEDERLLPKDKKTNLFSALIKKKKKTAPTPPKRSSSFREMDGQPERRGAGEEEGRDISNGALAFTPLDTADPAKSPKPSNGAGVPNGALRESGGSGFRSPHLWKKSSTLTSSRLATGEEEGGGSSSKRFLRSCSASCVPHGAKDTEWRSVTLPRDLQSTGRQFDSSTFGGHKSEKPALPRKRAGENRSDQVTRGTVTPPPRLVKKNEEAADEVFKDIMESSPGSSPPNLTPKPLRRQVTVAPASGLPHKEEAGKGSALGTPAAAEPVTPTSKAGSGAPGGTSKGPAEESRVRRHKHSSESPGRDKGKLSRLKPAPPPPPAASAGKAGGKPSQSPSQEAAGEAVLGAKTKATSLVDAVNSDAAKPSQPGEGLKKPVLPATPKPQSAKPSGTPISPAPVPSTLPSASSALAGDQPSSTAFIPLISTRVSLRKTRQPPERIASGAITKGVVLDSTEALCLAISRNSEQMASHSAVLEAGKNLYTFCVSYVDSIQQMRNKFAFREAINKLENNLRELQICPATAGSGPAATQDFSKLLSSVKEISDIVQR
T1 sequence (P00519 whole entry, species assumed): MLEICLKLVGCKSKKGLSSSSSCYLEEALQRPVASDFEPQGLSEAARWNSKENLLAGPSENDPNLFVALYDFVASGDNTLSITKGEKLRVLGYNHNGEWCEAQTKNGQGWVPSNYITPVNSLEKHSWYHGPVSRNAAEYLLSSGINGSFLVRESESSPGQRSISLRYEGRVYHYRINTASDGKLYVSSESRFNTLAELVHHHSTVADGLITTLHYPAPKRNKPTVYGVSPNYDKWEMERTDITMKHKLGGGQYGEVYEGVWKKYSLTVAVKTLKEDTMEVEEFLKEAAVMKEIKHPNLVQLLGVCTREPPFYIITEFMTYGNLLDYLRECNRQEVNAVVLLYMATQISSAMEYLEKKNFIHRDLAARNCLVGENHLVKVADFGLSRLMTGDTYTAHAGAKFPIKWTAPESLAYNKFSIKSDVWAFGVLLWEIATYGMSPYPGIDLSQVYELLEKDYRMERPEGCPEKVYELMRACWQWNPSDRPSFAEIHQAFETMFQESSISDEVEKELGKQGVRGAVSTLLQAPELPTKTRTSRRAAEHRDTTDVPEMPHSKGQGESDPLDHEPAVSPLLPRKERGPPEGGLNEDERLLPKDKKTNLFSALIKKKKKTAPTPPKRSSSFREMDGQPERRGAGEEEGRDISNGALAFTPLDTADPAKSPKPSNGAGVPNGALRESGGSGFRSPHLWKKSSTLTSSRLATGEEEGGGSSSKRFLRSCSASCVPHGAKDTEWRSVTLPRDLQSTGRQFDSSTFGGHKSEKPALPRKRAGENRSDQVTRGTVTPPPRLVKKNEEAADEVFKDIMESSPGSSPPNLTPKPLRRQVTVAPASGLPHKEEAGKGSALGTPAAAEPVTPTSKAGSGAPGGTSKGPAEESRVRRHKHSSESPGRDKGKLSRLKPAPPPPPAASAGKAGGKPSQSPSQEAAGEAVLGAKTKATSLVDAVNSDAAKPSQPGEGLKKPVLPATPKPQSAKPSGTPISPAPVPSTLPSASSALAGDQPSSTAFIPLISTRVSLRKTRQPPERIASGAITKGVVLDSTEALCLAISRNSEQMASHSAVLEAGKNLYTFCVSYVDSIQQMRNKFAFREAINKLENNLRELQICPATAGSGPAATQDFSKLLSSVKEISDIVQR
T2 sequence (P48025 whole entry): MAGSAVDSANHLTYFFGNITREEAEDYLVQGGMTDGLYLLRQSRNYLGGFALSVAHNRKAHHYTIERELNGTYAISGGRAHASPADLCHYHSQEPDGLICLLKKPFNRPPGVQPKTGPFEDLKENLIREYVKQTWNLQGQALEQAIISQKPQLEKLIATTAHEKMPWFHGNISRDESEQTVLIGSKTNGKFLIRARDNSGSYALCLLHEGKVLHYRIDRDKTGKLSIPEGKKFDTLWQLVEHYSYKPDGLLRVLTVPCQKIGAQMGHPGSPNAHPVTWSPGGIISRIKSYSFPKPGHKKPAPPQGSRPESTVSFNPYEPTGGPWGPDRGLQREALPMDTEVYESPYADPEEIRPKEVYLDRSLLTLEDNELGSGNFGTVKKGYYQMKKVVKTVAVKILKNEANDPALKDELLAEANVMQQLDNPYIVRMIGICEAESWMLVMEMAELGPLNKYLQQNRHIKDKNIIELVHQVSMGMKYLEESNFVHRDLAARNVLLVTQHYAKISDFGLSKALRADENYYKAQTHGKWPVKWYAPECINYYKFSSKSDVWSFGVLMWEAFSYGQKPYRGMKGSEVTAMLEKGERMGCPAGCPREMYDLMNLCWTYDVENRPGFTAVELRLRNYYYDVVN
Sequence of Lyn (P07948 whole entry, species assumed): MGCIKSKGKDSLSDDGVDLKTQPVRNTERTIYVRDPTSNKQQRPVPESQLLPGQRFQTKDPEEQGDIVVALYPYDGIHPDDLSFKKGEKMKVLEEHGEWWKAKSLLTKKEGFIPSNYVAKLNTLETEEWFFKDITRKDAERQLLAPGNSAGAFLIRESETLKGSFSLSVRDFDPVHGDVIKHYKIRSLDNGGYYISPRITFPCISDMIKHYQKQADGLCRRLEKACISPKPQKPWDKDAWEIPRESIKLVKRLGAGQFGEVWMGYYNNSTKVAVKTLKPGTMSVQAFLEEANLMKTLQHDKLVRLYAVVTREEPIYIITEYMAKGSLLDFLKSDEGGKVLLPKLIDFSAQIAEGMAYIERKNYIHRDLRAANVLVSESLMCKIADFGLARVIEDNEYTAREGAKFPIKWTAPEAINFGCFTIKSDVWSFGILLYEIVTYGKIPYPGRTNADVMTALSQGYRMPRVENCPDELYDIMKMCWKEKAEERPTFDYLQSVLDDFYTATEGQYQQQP
Sequence of Syk-EGFP (P48025 whole entry): as the sequence (P48025 whole entry) above

COc1cc(Nc2ncc(F)c(Nc3ccc4c(n3)NC(=O)C(C)(C)O4)n2)cc(OC)c1OC [R406]
effect on cells with elevated Syk Y525/Y526 phosphorylation [1]: induces apoptosis and blocks proliferation

Oc1cc(O)cc(/C=C/c2ccc(O)c(O)c2)c1 [piceatannol]
IC50 (Syk-EGFP): 178 ± 1.4 µM

DEEDYEEPDEP [SAStide]
Kd ([2]; read-out: Kd of 1:1 peptide-terbium complex): 7.64 ± 0.32 µM
toxicity of peptide to cells [3]: no toxicity was observed
phosphorylation of peptide by Abl (Abl [4]): none of which produced any significant signal
phosphorylation of peptide by Src (Src): none of which produced any significant signal
phosphorylation of peptide by Lyn (Lyn): none of which produced any significant signal
phosphorylation of peptide by Syk (Syk): phosphorylated

EAIYAAPFAKKK(Biotin)G[ξβ3hPhg(2-NO2)]GCGGAPTYSPPPPPGGRKKRRQRRRLL [Abl biosensor]
uptake into K562 cells (Bcr-Abl [5]; 25 μM peptide): readily taken up
intact peptide after exposure to cells (K562 cells): essentially no intact peptide was observed

GGDEDDNDEVAYQAPFEDGGKbiotinGG (GGDEDDNDEVAYQAPFEDGGK(Biotin)GG) [ABStide, Abl artificial substrate peptide]
substrate specificity Abl against Hck (Abl [6]): specific for Abl

GGDNEGDVYDFVEDGGKbiotin (GGDNEGDVYDFVEDGGK(Biotin)GG) [SFAStideB, Src family artificial substrate peptide B]
Kd [2, 8]: 2.5 µM

GGEEDEDIYEELDEPGGKbiotinGG [SFAStide-A]
Kd [2, 8]: 3.93 µM
phosphorylation of peptide by Abl (Abl [4]): will not
phosphorylation of peptide by Src (Src): phosphorylate SFAStide-A efficiently
phosphorylation of peptide by Lyn (Lyn): phosphorylate SFAStide-A efficiently
phosphorylation of peptide by Syk (Syk): will not

pSFAStideA [Phosphorylated form of SFAStide-A]
Kd [2, 8]: 0.77 µM

pervanadate [reference compound]
phosphorylated biosensor peptide detected (Bcr-Abl [7]): higher levels
effect on phosphorylation of Abl biosensor (Bcr-Abl [5]; K562 cells, 10 μM imatinib or 1 μM pervanadate, 5, 30, 60 min): stabilized
